Experiments:
VX2 tumor = experiment: Longitudinal survival studies in the VX2 rabbit model; type: in vivo
Text: In a longitudinal study to investigate the effect of 3-bromopyruvate treatment in the VX2 rabbit model, it was observed that although the treated rabbits lived longer than the untreated ones (statistically significant), the treated rabbits were not cured of their tumors and died within weeks of treatment of massive tumor growth. The extremely aggressive nature of the VX2 tumor was not stopped by the treatment and the tumor re-grew despite the high initial percentage of cancer cell death. Further studies were thus needed to determine the optimal dose and method of infusion of 3-bromopyruvate to attain significant long-term survival, complete eradication of the tumor.
VX2 tumors are extremely aggressive and are rendered more aggressive and difficult to treat by the passage of this tumor from generation to generation (>100) in the thigh of a rabbit making each generation more virulent than the last. […] As described herein continuous intraarterial infusion of 1.7 mM 3-bromopyruvate is an effective and potent therapy for treating liver cancer.

Sk-Hep1 = experiment: ATP levels after treatment, Sk-Hep1; type: cell-based; conditions: 0.1, 0.2, 0.3 mM for 1 and 3 hours
Description: ATP levels were measured in various cell lines, e.g., HepG2, Sk-Hep1, and Vx-2 after 3-bromopyruvate treatment. In each case, cells were treated with increasing concentration of 3-bromopyruvate (0.1 mM, 0.2 mM, and 0.3 mM) for 1 and 3 hours before measuring ATP levels in the cell. FIGS. 5 (A-C) show the ATP depletion observed following 3-bromopyruvate treatment in HepG2, Sk-Hep1, and Vx-2 cell lines, respectively.

[1] = Intravenous dose-escalation study in normal Lewis rats; type: in vivo, rat; conditions: for therapeutic dose, intravenous: Lewis rats
Description: In order to determine the therapeutic dose of 3-bromopyruvate for intravenous (N) administration, a dose-escalation study was conducted in normal Lewis rats (non-tumor bearing). Each group of animals (6 rats per group) received incremental doses of 3-bromopyruvate intravenously (2.5 mL of 5, 10, 15, 20, 25 and 50 mM 3-bromopyruvate).

HepG2 = experiment: Caspase-3 activity, HepG2; type: cell-based, human; conditions: 1 mM for 3 hour
Description: (§1) Caspase-3 activity and reduced cell viability was also measured in cell lines (HepG2, THLE-2, and VX2 cell lines) following 3-bromopyruvate treatment (1 mM for 3 hour) (FIG. 6A). Caspase-3 activity increased in each cell line following treatment and cell viability decreased following treatment. An increase in caspase-3 activity indicated the mechanism of cell death is apoptotic. FIGS. 6 B and C show cell viability is reduced in each cell line with increasing 3-bromopyruvate concentration after 1 and 3 hours of treatment.

[2] = test system: liver implanted VX2 tumors; experiment: Systemic delivery via marginal ear vein, animals with liver implanted VX2 tumors; type: in vivo, rabbit; conditions: 25 ml, 0.5 mM via marginal ear vein
Text: Finally, it was important to examine the effect of 3-BrPA when delivered systemically (i.e., via the general circulation) on both animal toxicity and its capacity to damage liver implanted tumors.

THLE-2 = experiment: Caspase-3 activity, THLE-2; type: cell-based; conditions: 1 mM for 3 hour
Description: as §1

rat mammary tumor (RMT) = experiment: FDG uptake after IP injection in tumor bearing rats; type: in vivo
Text: After having established the anti-glycolytic effect of 3-bromopyruvate in vitro, we designed a series of experiments to confirm this property in vivo. For this purpose, two different animal models, the Lewis rat mammary tumor model and the orthotopic VX2 rabbit liver cancer model were used. Since glucose uptake can be monitored using fluorine-labeled deoxyglucose (FDG), potential sites of decreased FDG uptake as a result of 3-bromopyruvate activity could be identified. The effects of intraperitonealy (IP) injected 3-bromopyruvate in non-tumor bearing rats were compared to those in tumor bearing rats. The tumors were derived from the rat mammary tumor (RMT) cell line and transplanted into the back adipose tissue of the rat and allowed to grow for 10 days. After having determined the maximum tolerated dose, all animals received two bolus doses (one hour apart) of 3-bromopyruvate injected IP. The FDG was injected 30 minutes after the first injection of 3-bromopyruvate and all animals were sacrificed 60 minutes after the FDG was injected. The tumors and all major organs were removed, weighed and analyzed in a gamma counter. […]

[3] = Biodistribution of 14C radiolabeled 3-bromopyruvate in rabbit Vx-2 model; type: in vivo
Description: In order to properly design a treatment protocol that would ensure survival of the animal with the least amount of toxicity, the biodistribution of 3-bromopyruvate given either IV or intraarterially over a period of 24 hours was investigated. For this series of experiments, radioactive 3-bromopyruvate using ^14C was synthesized. The use of ^14C labeled 3-bromopyruvate would allow monitoring in each tissue.
36 rabbits were divided into two groups of 18 animals each. Group 1 was treated intraarterially and group 2 received intravenous injection of 3-bromopyruvate. Each group was further subdivided into six groups of three rabbits each, corresponding to various time points of sacrifice (0, 30, 60, 120 and 240 minutes and 24 hours). All rabbits were fasted for 24 hours prior to treatment. The rabbits treated intraarterially received a one-hour infusion of 25 cc of 1.75 mM 3-bromopyruvate in PBS and those treated intravenously received a one-hour infusion of 25 cc of 20 mM 3-bromopyruvate in PBS. The difference in doses of 3-bromopyruvate between intraarterial and intravenous administration is based on the optimal dose for each method of administration. Radiolabeled 3-bromopyruvate (200 μCi, 100 μL) was added to each 25 ml treatment solution. One hour before sacrifice, 1 ml of 18FDG (1 mCi) was injected via an ear vein to monitor glucose uptake.
The purpose of the injection of FDG was to correlate the effects of 3-bromopyruvate with glucose uptake. […] This finding, also present when the drug was given intraarterially, was more pronounced and the accumulation of 3-bromopyruvate is prolonged compared to IV administration.

[4] = IA one-hour infusion 25 cc 1.75 mM

O=C(O)C(=O)CBr [3-bromopyruvate]
survival versus untreated rabbits (VX2 tumor; VX2 rabbit model, not cured, tumor re-grew): lived longer
delay of tumor progression versus saline (IA) controls (VX2 tumor; animals with 100% tumor kill): 75%
ATP levels (Sk-Hep1): ATP depletion
organs by histopathologic analysis ([1]; 50 mM IV): normal
therapeutic dose, intravenous ([1]; 2.5 mL IV, observed 3 weeks): 20 mM
therapeutic dose, intravenous ([1]; IV): 16.8 mg/kg
tolerability ([1]; all doses lower than 20 mM IV): well-tolerated and caused no deaths
clinical distress (appetite, urination, body weight) ([1]; doses lower than 20 mM IV): no evidence of clinical distress
major organs at necropsy ([1]; doses lower than 20 mM IV): without any damage
mortality ([1]; highest dose of 50 mM IV): all the animals in the group died
time to death ([1]; highest dose of 50 mM IV): ≤ 15 min
Caspase-3 activity (HepG2): increased
animal behavior [2]: normal behavior
effect on liver implanted VX2 tumors [2]: no killing effect
histological examination of 9 major tissues ([2]; 4 days): no obvious damage
Caspase-3 activity (THLE-2): increased
FDG uptake in all other organs (rat mammary tumor (RMT); two IP bolus doses): unaffected
decrease in FDG uptake in the tumor (rat mammary tumor (RMT); two IP bolus doses one hour apart): 50%
levels in the brain ([3]; 14C label): virtually undetectable
accumulation in other organs including brain, lungs and heart [3, 4]: no accumulation
retention in the tumor [3, 4]: stayed within the tumor up to 24 hours
clearance route ([3]; IA, lesser extent through the kidneys): mostly through the liver
uptake by organs (heart, lung and brain) ([3]; IV one-hour infusion 25 cc 20 mM): no significant uptake
time of maximal tumor uptake ([3]; after IV injection): 4 h
blood brain barrier penetration ([3]; rabbit, in vivo): does not cross the blood brain barrier
inhibition of FDG (glucose) uptake in organs ([3]; rabbit, in vivo): no inhibition
tissue damage at histopathologic analysis ([3]; rabbit, in vivo): none of the organs showed any associated tissue damage

Source: patent publication US20100203110A1, “Therapeutics for Cancer Using 3-Bromopyruvate and Other Selective Inhibitors of ATP Production” (The Johns Hopkins University, priority 2006, published 2010)
